In patent US20240327439A1, “PHARMACOLOGICAL AGENTS FOR PREVENTING AND TREATING CATARACTS AND PRESBYOPIA EYE DISEASES” (Plex Pharmaceuticals, Inc., priority 2021, published 2024):

Tested on: Bovine lens lysates
Test: Prevention of UVC/H2O2-induced aggregation (opacification) of bovine lens extracts
Format: biochemical
Conditions: bovine lens lysates 2 mg/ml, various concentrations of compound, UV-irradiated, vs vehicle 0.5% DMSO
Experimental: Bovine lens lysates (2 mg/ml, 50 μl) were incubated with various concentrations of CAP1160 (structure shown below) or a vehicle (0.5% DMSO), and then left unexposed (no exposure) or exposed to UV (UV-irradiated). At various time points, wells-containing bovine lens lysates were pictured and the corresponding absorbance at 600 nm (A600) was measured. Representative brightfield images of wells taken 7 min after initial UV exposure (FIG. 1A) and corresponding A600 (FIG. 1B).

For `Cc1ccc(C(=O)c2cc(O)c(O)c([N+](=O)[O-])c2)cc1` [CAP1160], the “opacification of bovine lens protein lysates induced by UV irradiation (absorbance at 600 nm, brightfield images)” value was “delays, in a dose-dependent manner, the opacification”.
